{"source": "patent US10670605B2", "about": "“Cysteine reactive probes and uses thereof” (The Scripps Research Institute, priority 2015, dated 2020)", "assay_in_all_cases": "Competitive isoTOP-ABPP in situ (fragment-treated cells)", "assay_type_in_all_cases": "cell-based", "key": {"[1]": {"molecular_target": "cysteines in MDA-MB-231 and Ramos cells (Homo sapiens, UniProt P83731)"}, "[2]": {"molecular_target": "T1, cysteines in MDA-MB-231 and Ramos cells (Homo sapiens, UniProt Q13155)", "T1 sequence (Q13155 1-320)": "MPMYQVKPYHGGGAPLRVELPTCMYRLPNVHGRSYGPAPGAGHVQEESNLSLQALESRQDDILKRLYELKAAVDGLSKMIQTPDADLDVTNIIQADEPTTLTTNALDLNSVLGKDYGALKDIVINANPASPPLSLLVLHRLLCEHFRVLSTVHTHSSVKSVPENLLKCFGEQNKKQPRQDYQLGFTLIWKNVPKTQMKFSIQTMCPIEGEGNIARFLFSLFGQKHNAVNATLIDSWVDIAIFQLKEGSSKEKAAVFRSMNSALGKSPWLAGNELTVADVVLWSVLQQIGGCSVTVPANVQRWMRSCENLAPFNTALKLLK"}, "[3]": {"molecular_target": "cysteines in MDA-MB-231 and Ramos cells (Homo sapiens, UniProt O60610)", "sequence (O60610 whole entry)": "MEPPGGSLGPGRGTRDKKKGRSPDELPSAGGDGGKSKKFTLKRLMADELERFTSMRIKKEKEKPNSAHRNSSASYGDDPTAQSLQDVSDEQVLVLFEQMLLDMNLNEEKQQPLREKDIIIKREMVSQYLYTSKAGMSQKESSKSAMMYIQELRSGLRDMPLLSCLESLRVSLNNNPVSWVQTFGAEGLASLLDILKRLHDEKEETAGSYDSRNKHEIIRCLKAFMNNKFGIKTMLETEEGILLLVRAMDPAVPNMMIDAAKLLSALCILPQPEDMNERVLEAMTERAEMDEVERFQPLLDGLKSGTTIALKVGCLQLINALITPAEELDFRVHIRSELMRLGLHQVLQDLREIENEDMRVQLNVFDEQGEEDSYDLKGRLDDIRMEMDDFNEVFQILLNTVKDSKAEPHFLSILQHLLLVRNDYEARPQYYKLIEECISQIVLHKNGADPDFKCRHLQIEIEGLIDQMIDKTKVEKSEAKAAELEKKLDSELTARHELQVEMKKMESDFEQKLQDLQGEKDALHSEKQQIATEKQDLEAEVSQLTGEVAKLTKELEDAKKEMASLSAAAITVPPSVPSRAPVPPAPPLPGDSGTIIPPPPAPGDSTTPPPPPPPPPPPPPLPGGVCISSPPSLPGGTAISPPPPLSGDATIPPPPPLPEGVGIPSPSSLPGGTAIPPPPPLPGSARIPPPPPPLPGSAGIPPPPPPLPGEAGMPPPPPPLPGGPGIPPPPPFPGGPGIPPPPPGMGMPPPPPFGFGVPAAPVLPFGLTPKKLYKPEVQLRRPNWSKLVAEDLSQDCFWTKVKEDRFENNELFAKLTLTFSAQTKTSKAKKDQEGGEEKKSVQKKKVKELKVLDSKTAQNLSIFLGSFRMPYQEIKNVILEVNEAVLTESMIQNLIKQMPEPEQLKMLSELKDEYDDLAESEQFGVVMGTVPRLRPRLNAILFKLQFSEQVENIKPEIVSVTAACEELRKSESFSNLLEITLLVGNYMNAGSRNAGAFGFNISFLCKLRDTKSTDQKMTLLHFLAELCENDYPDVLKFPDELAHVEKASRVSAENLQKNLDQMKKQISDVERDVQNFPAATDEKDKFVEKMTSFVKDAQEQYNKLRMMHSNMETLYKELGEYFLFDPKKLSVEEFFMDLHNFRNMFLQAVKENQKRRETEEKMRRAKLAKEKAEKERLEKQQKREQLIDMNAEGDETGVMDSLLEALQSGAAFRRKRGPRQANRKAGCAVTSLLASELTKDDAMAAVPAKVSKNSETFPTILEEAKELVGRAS"}, "[4]": {"molecular_target": "cysteines in MDA-MB-231 and Ramos cells (Homo sapiens, UniProt Q9Y696)", "sequence (Q9Y696 whole entry)": "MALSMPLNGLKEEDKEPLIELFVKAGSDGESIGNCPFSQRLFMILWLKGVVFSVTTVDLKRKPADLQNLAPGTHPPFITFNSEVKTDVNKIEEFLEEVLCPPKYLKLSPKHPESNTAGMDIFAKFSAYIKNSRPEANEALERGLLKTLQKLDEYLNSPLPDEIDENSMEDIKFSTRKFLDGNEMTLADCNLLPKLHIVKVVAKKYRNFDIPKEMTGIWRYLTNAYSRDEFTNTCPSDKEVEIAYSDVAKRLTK"}, "[5]": {"molecular_target": "cysteines in MDA-MB-231 and Ramos cells (Homo sapiens, UniProt Q13526)", "sequence (Q13526 whole entry)": "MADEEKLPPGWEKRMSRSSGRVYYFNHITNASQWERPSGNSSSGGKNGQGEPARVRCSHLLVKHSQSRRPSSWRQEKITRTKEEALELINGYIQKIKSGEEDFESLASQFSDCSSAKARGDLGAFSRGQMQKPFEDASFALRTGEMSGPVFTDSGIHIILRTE"}, "[6]": {"molecular_target": "T2, cysteines in MDA-MB-231 and Ramos cells (Homo sapiens, UniProt Q9Y277)", "T2 sequence (Q9Y277 1-283)": "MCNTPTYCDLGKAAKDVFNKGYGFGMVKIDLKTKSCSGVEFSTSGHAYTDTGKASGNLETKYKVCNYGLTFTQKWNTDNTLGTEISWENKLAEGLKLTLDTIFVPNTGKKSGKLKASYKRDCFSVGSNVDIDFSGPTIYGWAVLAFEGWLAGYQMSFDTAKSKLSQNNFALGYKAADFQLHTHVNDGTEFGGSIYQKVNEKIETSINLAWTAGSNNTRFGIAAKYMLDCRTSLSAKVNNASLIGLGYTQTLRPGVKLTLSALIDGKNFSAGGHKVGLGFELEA"}, "[7]": {"molecular_target": "cysteines in MDA-MB-231 and Ramos cells (Homo sapiens, UniProt Q14997)", "sequence (Q14997 whole entry)": "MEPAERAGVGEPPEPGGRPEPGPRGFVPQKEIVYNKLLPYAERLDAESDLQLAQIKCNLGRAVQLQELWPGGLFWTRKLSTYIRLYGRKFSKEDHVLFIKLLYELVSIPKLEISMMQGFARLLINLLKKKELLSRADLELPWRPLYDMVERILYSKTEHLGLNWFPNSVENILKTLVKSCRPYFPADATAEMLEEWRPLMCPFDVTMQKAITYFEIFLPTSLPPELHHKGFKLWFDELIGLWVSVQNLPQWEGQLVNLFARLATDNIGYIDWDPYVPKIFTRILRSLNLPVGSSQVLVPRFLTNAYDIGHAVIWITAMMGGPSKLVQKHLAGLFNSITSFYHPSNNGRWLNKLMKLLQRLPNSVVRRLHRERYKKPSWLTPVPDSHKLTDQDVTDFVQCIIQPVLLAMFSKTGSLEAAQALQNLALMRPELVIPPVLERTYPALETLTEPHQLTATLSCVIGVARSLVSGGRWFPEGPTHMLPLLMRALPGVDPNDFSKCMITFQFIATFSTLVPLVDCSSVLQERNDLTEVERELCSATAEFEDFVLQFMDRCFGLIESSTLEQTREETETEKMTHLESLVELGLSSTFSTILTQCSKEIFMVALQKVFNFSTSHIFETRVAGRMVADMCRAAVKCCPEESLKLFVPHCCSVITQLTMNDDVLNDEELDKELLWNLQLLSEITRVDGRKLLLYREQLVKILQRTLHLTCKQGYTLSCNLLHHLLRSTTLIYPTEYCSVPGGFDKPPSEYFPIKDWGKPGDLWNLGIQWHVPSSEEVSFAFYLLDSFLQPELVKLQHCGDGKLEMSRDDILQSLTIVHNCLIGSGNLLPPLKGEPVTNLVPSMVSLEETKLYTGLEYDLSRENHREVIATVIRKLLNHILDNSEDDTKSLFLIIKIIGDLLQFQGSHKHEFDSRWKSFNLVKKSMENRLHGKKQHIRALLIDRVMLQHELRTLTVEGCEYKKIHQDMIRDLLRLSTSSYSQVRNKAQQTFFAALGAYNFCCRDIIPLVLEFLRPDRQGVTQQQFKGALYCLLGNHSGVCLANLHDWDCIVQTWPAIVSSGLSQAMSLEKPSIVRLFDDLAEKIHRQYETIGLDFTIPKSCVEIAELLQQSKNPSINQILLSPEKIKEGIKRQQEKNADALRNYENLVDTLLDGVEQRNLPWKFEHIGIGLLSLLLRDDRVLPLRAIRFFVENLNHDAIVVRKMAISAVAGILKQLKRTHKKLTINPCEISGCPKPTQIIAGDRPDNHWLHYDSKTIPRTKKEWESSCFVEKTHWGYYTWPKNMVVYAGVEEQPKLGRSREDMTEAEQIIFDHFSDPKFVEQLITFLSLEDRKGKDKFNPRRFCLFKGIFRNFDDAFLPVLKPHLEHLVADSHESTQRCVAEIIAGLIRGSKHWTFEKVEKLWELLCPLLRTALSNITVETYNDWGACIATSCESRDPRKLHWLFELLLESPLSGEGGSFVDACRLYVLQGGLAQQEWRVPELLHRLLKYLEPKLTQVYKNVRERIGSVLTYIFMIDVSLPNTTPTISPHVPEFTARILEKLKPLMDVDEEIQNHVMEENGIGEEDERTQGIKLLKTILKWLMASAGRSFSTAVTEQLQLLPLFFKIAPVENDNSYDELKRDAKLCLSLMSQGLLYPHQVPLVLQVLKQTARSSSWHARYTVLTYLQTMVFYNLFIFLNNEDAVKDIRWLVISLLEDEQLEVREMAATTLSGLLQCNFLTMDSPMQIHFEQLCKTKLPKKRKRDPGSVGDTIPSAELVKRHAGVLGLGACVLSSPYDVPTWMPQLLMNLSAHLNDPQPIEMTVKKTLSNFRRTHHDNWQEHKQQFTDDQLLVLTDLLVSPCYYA"}, "[8]": {"molecular_target": "T3, cysteines in MDA-MB-231 and Ramos cells (Homo sapiens, UniProt Q9BRA2)", "T3 sequence (Q9BRA2 1-123)": "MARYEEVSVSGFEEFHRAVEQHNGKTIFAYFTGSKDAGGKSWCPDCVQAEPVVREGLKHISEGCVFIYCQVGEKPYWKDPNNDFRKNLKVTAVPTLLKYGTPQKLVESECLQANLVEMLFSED"}, "[9]": {"molecular_target": "T4, cysteines in MDA-MB-231 and Ramos cells (Homo sapiens, UniProt Q5T0N5)", "T4 sequence (Q5T0N5 1-605)": "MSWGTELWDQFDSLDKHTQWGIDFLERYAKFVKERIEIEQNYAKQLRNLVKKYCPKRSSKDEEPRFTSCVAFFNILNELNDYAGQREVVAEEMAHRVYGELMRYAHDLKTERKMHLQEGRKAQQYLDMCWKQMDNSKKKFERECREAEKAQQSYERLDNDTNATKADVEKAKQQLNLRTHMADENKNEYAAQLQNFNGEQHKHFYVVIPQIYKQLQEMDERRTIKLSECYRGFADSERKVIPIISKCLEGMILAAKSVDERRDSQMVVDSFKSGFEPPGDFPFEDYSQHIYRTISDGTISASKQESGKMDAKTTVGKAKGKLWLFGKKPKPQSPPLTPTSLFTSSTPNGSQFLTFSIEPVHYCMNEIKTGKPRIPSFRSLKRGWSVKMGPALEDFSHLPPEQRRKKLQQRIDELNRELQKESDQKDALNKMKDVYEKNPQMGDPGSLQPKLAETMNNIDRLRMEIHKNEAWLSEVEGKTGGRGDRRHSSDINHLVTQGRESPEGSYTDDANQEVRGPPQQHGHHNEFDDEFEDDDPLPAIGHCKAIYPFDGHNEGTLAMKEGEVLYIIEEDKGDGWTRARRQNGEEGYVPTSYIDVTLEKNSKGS"}, "[10]": {"molecular_target": "T5, cysteines in MDA-MB-231 and Ramos cells (Homo sapiens, UniProt Q99757)", "T5 sequence (Q99757 60-166)": "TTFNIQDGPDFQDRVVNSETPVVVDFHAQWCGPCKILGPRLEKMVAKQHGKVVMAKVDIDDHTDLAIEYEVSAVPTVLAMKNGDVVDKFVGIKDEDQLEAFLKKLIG"}, "[11]": {"molecular_target": "T6, cysteines in MDA-MB-231 and Ramos cells (Homo sapiens, UniProt P78417)", "T6 sequence (P78417 1-241)": "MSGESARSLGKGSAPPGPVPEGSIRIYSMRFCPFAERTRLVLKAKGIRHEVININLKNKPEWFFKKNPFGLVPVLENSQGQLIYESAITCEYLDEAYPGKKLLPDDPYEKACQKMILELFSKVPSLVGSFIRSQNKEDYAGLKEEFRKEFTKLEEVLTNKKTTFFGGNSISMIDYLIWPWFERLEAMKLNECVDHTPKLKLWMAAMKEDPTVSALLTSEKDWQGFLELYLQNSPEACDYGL", "settings": "for isoTOP-ABPP ratio P78417_C32: 200 μM, insitu"}}}
{"smiles": "COc1ccc2c(c1)CCCN2C(=O)CCl", "note": "[compound 2]", "values": [{"measurement": "isoTOP-ABPP reactivity P83731_C6 RPL24", "setting": "[1]; 200 μM, insitu, 231", "value": 2.4}, {"measurement": "isoTOP-ABPP reactivity Q13155_C291 AIMP2", "setting": "[2]; 200 μM, insitu, 231", "value": 20.0}, {"measurement": "isoTOP-ABPP reactivity O60610_C1227 DIAPH1", "setting": "[3]; 200 μM, insitu, 231", "value": 2.2}, {"measurement": "isoTOP-ABPP reactivity Q9Y696_C35 CLIC4", "setting": "[4]; 200 μM, insitu, 231", "value": 1.7}, {"measurement": "isoTOP-ABPP reactivity Q13526_C113 PIN1", "setting": "[5]; 200 μM, insitu, 231", "value": 20.0}, {"measurement": "isoTOP-ABPP reactivity Q9Y277_C65 VDAC3", "setting": "[6]; 200 μM, insitu, 231", "value": 3.3}, {"measurement": "isoTOP-ABPP reactivity Q14997_C1840 PSME4", "setting": "[7]; 200 μM, insitu, 231", "value": 2.8}, {"measurement": "isoTOP-ABPP reactivity Q9BRA2_C43 TXNDC17", "setting": "[8]; 200 μM, insitu, 231", "value": 15.5}, {"measurement": "isoTOP-ABPP reactivity Q5T0N5_C69 FNBP1L", "setting": "[9]; 200 μM, insitu, 231", "value": 20.0}, {"measurement": "isoTOP-ABPP reactivity Q99757_C90 TXN2", "setting": "[10]; 200 μM, insitu, 231", "value": 10.1}]}
{"smiles": "COc1ccc(C2CC(c3cccs3)=NN2C(=O)CCl)cc1", "note": "(stereo not drawn) [compound 4]", "values": [{"measurement": "isoTOP-ABPP reactivity P83731_C6 RPL24", "setting": "[1]; 100 μM in situ 231", "value": 0.7}, {"measurement": "isoTOP-ABPP reactivity P78417_C32 GSTO1", "setting": "[11]; 100 μM in situ 231", "value": 19.9}, {"measurement": "isoTOP-ABPP reactivity Q13155_C23 AIMP2", "setting": "[2]; 100 μM in situ 231", "value": 2.8}, {"measurement": "isoTOP-ABPP reactivity Q13155_C291 AIMP2", "setting": "[2]; 100 μM in situ 231", "value": 20.0}, {"measurement": "isoTOP-ABPP reactivity O60610_C1227 DIAPH1", "setting": "[3]; 100 μM in situ 231", "value": 1.6}, {"measurement": "isoTOP-ABPP reactivity Q9Y696_C35 CLIC4", "setting": "[4]; 100 μM in situ 231", "value": 20.0}, {"measurement": "isoTOP-ABPP reactivity Q13526_C113 PIN1", "setting": "[5]; 100 μM in situ 231", "value": 3.4}, {"measurement": "isoTOP-ABPP reactivity Q9Y277_C65 VDAC3", "setting": "[6]; 100 μM in situ 231", "value": 4.7}, {"measurement": "isoTOP-ABPP reactivity Q14997_C1840 PSME4", "setting": "[7]; 100 μM in situ 231", "value": 20.0}, {"measurement": "isoTOP-ABPP reactivity Q9BRA2_C43 TXNDC17", "setting": "[8]; 100 μM in situ 231", "value": 3.5}, {"measurement": "isoTOP-ABPP reactivity Q5T0N5_C69 FNBP1L", "setting": "[9]; 100 μM in situ 231", "value": 20.0}, {"measurement": "isoTOP-ABPP reactivity Q99757_C90 TXN2", "setting": "[10]; 100 μM in situ 231", "value": 3.6}]}
{"smiles": "O=C(CCl)N1CCN(S(=O)(=O)c2ccccc2F)CC1", "note": "[compound 10]", "values": [{"measurement": "isoTOP-ABPP ratio P83731_C6", "setting": "[1]; 200 μM, insitu, 231", "value": 0.4}, {"measurement": "isoTOP-ABPP ratio P83731_C6", "setting": "[1]; 200 μM, insitu, ramos", "value": 2.0}, {"measurement": "isoTOP-ABPP ratio P78417_C32", "setting": "[11]; 231", "value": 20.0}, {"measurement": "isoTOP-ABPP ratio P78417_C32", "setting": "[11]; ramos", "value": 20.0}, {"measurement": "isoTOP-ABPP ratio Q13155_C23", "setting": "[2]; 200 μM, insitu, 231", "value": 2.3}, {"measurement": "isoTOP-ABPP ratio Q13155_C291", "setting": "[2]; 200 μM, insitu, 231", "value": 1.7}, {"measurement": "isoTOP-ABPP ratio O60610_C1227", "setting": "[3]; 200 μM, insitu, 231", "value": 1.5}, {"measurement": "isoTOP-ABPP ratio O60610_C1227", "setting": "[3]; 200 μM, insitu, ramos", "value": 1.4}, {"measurement": "isoTOP-ABPP ratio Q9Y696_C35", "setting": "[4]; 200 μM, insitu, 231", "value": 2.7}, {"measurement": "isoTOP-ABPP ratio Q9Y696_C35", "setting": "[4]; 200 μM, insitu, ramos", "value": 1.6}, {"measurement": "isoTOP-ABPP ratio Q13526_C113", "setting": "[5]; 200 μM, insitu, 231", "value": 2.0}, {"measurement": "isoTOP-ABPP ratio Q13526_C113", "setting": "[5]; 200 μM, insitu, ramos", "value": 1.3}, {"measurement": "isoTOP-ABPP ratio Q9Y277_C65", "setting": "[6]; 200 μM, insitu, 231", "value": 3.3}, {"measurement": "isoTOP-ABPP ratio Q9Y277_C65", "setting": "[6]; 200 μM, insitu, ramos", "value": 2.5}, {"measurement": "isoTOP-ABPP ratio Q14997_C1840", "setting": "[7]; 200 μM, insitu, 231", "value": 20.0}, {"measurement": "isoTOP-ABPP ratio Q9BRA2_C43", "setting": "[8]; 200 μM, insitu, 231", "value": 20.0}, {"measurement": "isoTOP-ABPP ratio Q5T0N5_C69", "setting": "[9]; 200 μM, insitu, 231", "value": 2.0}]}
{"smiles": "O=C(CCl)NC(=O)NC12CC3CC(CC(C3)C1)C2", "note": "[compound 12]", "values": [{"measurement": "isoTOP-ABPP ratio P83731_C6", "setting": "[1]; 200 μM, insitu, 231", "value": 0.3}, {"measurement": "isoTOP-ABPP ratio P78417_C32", "setting": "[11]; 231", "value": 20.0}, {"measurement": "isoTOP-ABPP ratio Q13155_C23", "setting": "[2]; 200 μM, insitu, 231", "value": 1.6}, {"measurement": "isoTOP-ABPP ratio Q13155_C291", "setting": "[2]; 200 μM, insitu, 231", "value": 1.1}, {"measurement": "isoTOP-ABPP ratio O60610_C1227", "setting": "[3]; 200 μM, insitu, 231", "value": 0.8}, {"measurement": "isoTOP-ABPP ratio Q9Y696_C35", "setting": "[4]; 200 μM, insitu, 231", "value": 20.0}, {"measurement": "isoTOP-ABPP ratio Q13526_C113", "setting": "[5]; 200 μM, insitu, 231", "value": 0.6}, {"measurement": "isoTOP-ABPP ratio Q9Y277_C65", "setting": "[6]; 200 μM, insitu, 231", "value": 3.9}, {"measurement": "isoTOP-ABPP ratio Q14997_C1840", "setting": "[7]; 200 μM, insitu, 231", "value": 20.0}, {"measurement": "isoTOP-ABPP ratio Q9BRA2_C43", "setting": "[8]; 200 μM, insitu, 231", "value": 20.0}, {"measurement": "isoTOP-ABPP ratio Q5T0N5_C69", "setting": "[9]; 200 μM, insitu, 231", "value": 20.0}, {"measurement": "isoTOP-ABPP ratio Q99757_C90", "setting": "[10]; 200 μM, insitu, 231", "value": 5.0}]}
